Results reported in ChEMBL document CHEMBL1201862, “PubChem BioAssay data set” (2004).
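How tested: cells in 96-well plates exposed to compound for 48 hours at five concentrations. At the GI50, growth is halved.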 Calls of active or inactive are those of the source. Rule as the data show it: active = GI50 up to about 1.1 µM and inactive = higher.

Tests used:
Test in all cases: growth of human tumour cells (NCI), 48 h
[1] = test system: 786-0
[2] = test system: A498
[3] = test system: IGROV-1
[4] = test system: MOLT-4
[5] = test system: Malme-3M
[6] = test system: NCI-H226
[7] = test system: NCI-H522
[8] = test system: OVCAR-5
[9] = test system: SK-MEL-28
[10] = test system: SK-MEL-2
[11] = test system: SK-MEL-5
[12] = test system: SK-OV-3
[13] = test system: SW-620
[14] = test system: U-251
[15] = test system: UACC-257
[16] = test system: UO-31
[17] = test system: RXF 393

Measured: GI50

Cc1cc(N(CCC#N)CCC#N)ccc1CC1N=C(c2ccccc2)OC1=O (centres undefined)
inactive: [1] > 100 µM | [2] > 100 µM | [3] > 100 µM | [4] > 100 µM | [5] > 100 µM | [6] 64.1 µM | [7] > 100 µM | [8] > 100 µM | [9] > 100 µM | [10] > 100 µM | [11] > 100 µM | [12] > 100 µM | [13] > 100 µM | [14] > 100 µM | [15] > 100 µM | [16] > 100 µM

Cc1ccc(C)c2c1C1CCCCC3(OCCCO3)C21O (centres undefined)
inactive: [1] > 100 µM | [2] > 100 µM | [3] > 100 µM | [4] > 100 µM | [5] > 100 µM | [6] > 100 µM | [7] > 100 µM | [8] > 100 µM | [17] > 100 µM | [9] > 100 µM | [10] > 100 µM | [11] > 100 µM | [12] > 100 µM | [13] > 100 µM | [14] > 100 µM | [15] > 100 µM | [16] > 100 µM

C/C(=N\NC(=O)CC(=O)Nc1ccc(C)cc1)c1cc2ccccc2oc1=O
inactive: [1] > 100 µM | [3] > 100 µM | [4] > 100 µM | [5] 38.3 µM | [6] > 100 µM | [7] > 100 µM | [17] 89.1 µM | [9] > 100 µM | [10] > 100 µM | [11] > 100 µM | [12] > 100 µM | [13] > 100 µM | [14] > 100 µM | [15] > 100 µM | [16] > 100 µM

CN(C(=O)c1cccs1)C(=S)N1CCN(c2ccccn2)CC1
inactive: [1] > 100 µM | [3] > 100 µM | [4] > 100 µM | [5] > 100 µM | [6] > 100 µM | [7] > 100 µM | [8] > 100 µM | [17] > 100 µM | [9] > 100 µM | [10] > 100 µM | [11] > 100 µM | [12] > 100 µM | [13] > 100 µM | [14] > 100 µM | [15] > 100 µM | [16] > 100 µM

CN(CCS(=O)(=O)N1C(=O)C2CCCN2C(=O)[C@@H]1Cc1ccccc1)C(=O)OCc1ccccc1 (some centres undefined)
inactive: [1] > 100 µM | [2] 35.5 µM | [3] > 100 µM | [4] 16.5 µM | [5] 65 µM | [6] 37.8 µM | [7] 39.5 µM | [8] > 100 µM | [17] 28.6 µM | [9] 93.5 µM | [11] 25.8 µM | [12] > 100 µM | [13] > 100 µM | [14] 56.2 µM | [15] 69 µM | [16] 31.8 µM

CCOC(=O)C1COc2cc(-c3cc(=O)c4ccccc4o3)ccc2O1 (centres undefined)
inactive: [1] > 100 µM | [3] 66.8 µM | [4] > 100 µM | [5] > 100 µM | [7] 19.2 µM | [8] 78.9 µM | [17] 47.8 µM | [9] > 100 µM | [10] > 100 µM | [11] > 100 µM | [12] > 100 µM | [13] > 100 µM | [14] > 100 µM | [16] 30.5 µM

CC(C)(Oc1ccc(C(=O)c2ccc(Cl)cc2)cc1Cl)C(=O)Nc1c(Cl)cccc1Cl
active: [17] < 0.01 µM
inactive: [1] > 100 µM | [2] > 100 µM | [3] > 100 µM | [4] 67.9 µM | [5] > 100 µM | [7] 12.3 µM | [8] > 100 µM | [9] > 100 µM | [10] > 100 µM | [11] 20 µM | [12] > 100 µM | [13] > 100 µM | [14] > 100 µM | [15] > 100 µM | [16] 23 µM

O=c1sc(-c2nc3ccccc3[nH]2)c(/N=C/c2ccccc2)n1-c1ccccc1
inactive: [1] 42.9 µM | [2] > 100 µM | [3] 97.7 µM | [4] > 100 µM | [5] 92.7 µM | [6] 15.4 µM | [7] 90.2 µM | [8] > 100 µM | [17] 62.4 µM | [9] > 100 µM | [10] 63 µM | [11] 29.9 µM | [12] 42.6 µM | [13] > 100 µM | [14] 68.7 µM | [15] > 100 µM | [16] > 100 µM

CC(=O)c1ccc(N2C(=O)C3c4[nH]c5ccccc5c4C4CCC(C(C)(C)C)CC4C3C2=O)cc1 (centres undefined)
inactive: [1] 18.6 µM | [2] 22.5 µM | [3] 40.6 µM | [4] 30.1 µM | [5] 16.7 µM | [6] 18.7 µM | [7] 24.4 µM | [17] 17.9 µM | [9] 28.8 µM | [11] 25.6 µM | [12] 48.6 µM | [13] 21.7 µM | [14] 19.5 µM | [15] 35.2 µM | [16] 43.5 µM

C=CCC(N(C)C(=O)[C@H](Cc1ccccc1)NC(=O)OCc1ccccc1)P(=O)(Oc1ccccc1)Oc1ccccc1 (some centres undefined)
inactive: [1] > 100 µM | [3] > 100 µM | [4] 2.77 µM | [5] > 100 µM | [6] > 100 µM | [7] > 100 µM | [17] > 100 µM | [9] > 100 µM | [10] > 100 µM | [12] > 100 µM | [13] > 100 µM | [14] > 100 µM | [15] > 100 µM | [16] 5.5 µM

O=C1CCCCCCCCCCC(=O)N2CCOCCOCCN1Cc1cccc(n1)C2
inactive: [1] > 100 µM | [2] > 100 µM | [3] > 100 µM | [4] 39.6 µM | [5] > 100 µM | [6] > 100 µM | [7] 85.1 µM | [8] > 100 µM | [17] 28.4 µM | [9] > 100 µM | [10] > 100 µM | [11] 61.5 µM | [12] > 100 µM | [13] > 100 µM | [14] > 100 µM | [15] > 100 µM | [16] > 100 µM

Cc1c(C(=O)CC(=O)C(=O)Nc2cccc(C(F)(F)F)c2)[n+]([O-])c2ccccc2[n+]1[O-]
inactive: [1] 5.79 µM | [2] 20.7 µM | [3] 2.74 µM | [4] 2.71 µM | [5] 4.22 µM | [6] 30.8 µM | [7] 2.31 µM | [8] 7.28 µM | [17] 11.5 µM | [9] 7.35 µM | [10] 4.28 µM | [11] 3.57 µM | [12] 18.2 µM | [13] 3.54 µM | [14] 4.03 µM | [15] 2.56 µM | [16] 16.3 µM

COc1ccc(CNc2cnc3ccc(N)cc3n2)cc1OC
inactive: [1] > 100 µM | [4] > 100 µM | [5] > 100 µM | [6] > 100 µM | [7] > 100 µM | [8] > 100 µM | [9] 67 µM | [10] > 100 µM | [11] > 100 µM | [13] > 100 µM | [15] > 100 µM | [16] 79.6 µM

O=C(/C=C/c1ccco1)N1CCN(Cc2ccccc2)CC1
inactive: [1] > 100 µM | [2] > 100 µM | [3] > 100 µM | [4] > 100 µM | [7] > 100 µM | [8] > 100 µM | [9] > 100 µM | [11] > 100 µM | [12] > 100 µM | [13] > 100 µM | [14] > 100 µM | [15] > 100 µM | [16] 96.8 µM

Cn1c2c(c3ccccc31)C1CCCCCCC1C1C(=O)OC(=O)C21 (centres undefined)
inactive: [1] > 100 µM | [2] 72.1 µM | [3] 27.4 µM | [4] 24.8 µM | [5] 11.9 µM | [6] 63 µM | [8] > 100 µM | [17] 21.2 µM | [9] 54.1 µM | [11] 35.2 µM | [12] 32.7 µM | [13] 32.4 µM | [14] 37.9 µM | [16] > 100 µM

CC1C(=O)O[C@H]2C1CC[C@@]1(C)[C@H](O)CC[C@@]13C[C@]2(O)OO3 (some centres undefined)
inactive: [1] > 100 µM | [2] > 100 µM | [3] > 100 µM | [4] > 100 µM | [5] > 100 µM | [6] > 100 µM | [8] > 100 µM | [9] > 100 µM | [11] > 100 µM | [12] > 100 µM | [13] > 100 µM | [14] > 100 µM | [15] > 100 µM | [16] > 100 µM

CC(=O)OC(C)(C)[C@@H]1CC[C@]2(C)/C=C/[C@H](C)C[C@@H](O)C3=C(C)C[C@@H](O3)C12 (some centres undefined)
inactive: [1] > 100 µM | [2] > 100 µM | [3] > 100 µM | [4] > 100 µM | [5] > 100 µM | [6] 49.1 µM | [8] > 100 µM | [17] 94.6 µM | [9] > 100 µM | [10] > 100 µM | [11] > 100 µM | [12] > 100 µM | [13] > 100 µM | [14] > 100 µM | [15] > 100 µM | [16] > 100 µM
